Assay results reported in patent publication US11952610B2, “Digital microbiology” (priority 2016, dated 2024).
Converted amounts (≈) assume the structure as drawn. “Also recorded” adds a separate entry of the source. Like-named read-outs stand apart in the source and are kept apart here.

How the values were obtained:
[1] = tested on: Penicillium hirsutum ATCC 16025; test: Inhibition of mold growth outside the droplet aqueous phase, antifungal in oil phase; assay type: cell-based; details: 0.5 mg/L in the oil phase, 48 hours
C. albicans ATCC®24433™ [2] = details: cited from earlier work
C. albicans ATCC®24433™ [3] = test: Antifungal susceptibility testing in water-in-oil droplets, microscope reading; assay type: cell-based, Candida albicans
Procedure: (§1) (at 30° C. for the C. albicans).

[4] = tested on: Escherichia coli (ATCC®25922™); test: Antimicrobial susceptibility testing in water-in-oil droplets, microscope reading; assay type: cell-based; details: for MIC: Escherichia coli, read-out: Observed MIC
Procedure: as §1

E. coli ATCC®25922 = details: cited from earlier work
[5] = ATCC25922, droplets at 37° C., read after 4 and/or 6 h

Structure (SMILES): C=CCOC(Cn1ccnc1)c1ccc(Cl)cc1Cl (racemic) [Imazalil, (RS)-1-[2-(allyloxy)-2-(2,4-dichlorophenyl)ethyl]-1H-imidazole]
- Mold growth outside the aqueous phase [1]: the hyphae spreading was inhibited and mold growth was confined within the droplet; also recorded: inhibition of mold growth outside the aqueous phase

Structure (SMILES): C[C@@H]1[C@H](O)[C@@H](C)/C=C/C=C/C=C/C=C/C=C/C=C/C=C/[C@H](O[C@@H]2O[C@H](C)[C@@H](O)[C@H](N)[C@@H]2O)C[C@@H]2O[C@](O)(C[C@@H](O)C[C@@H](O)[C@H](O)CC[C@@H](O)C[C@@H](O)CC(=O)O[C@H]1C)C[C@H](O)[C@H]2C(=O)O [Amphotericin B]
- Expected MIC (CLSI) (C. albicans ATCC®24433™ [2]): 0.25 to 1 mg/L
- Growth in % of droplets (C. albicans ATCC®24433™ [3]; 0.125 mg/L, reading time 4 h): 15-20% of
- Growth in % of droplets (C. albicans ATCC®24433™ [3]; 0.25 mg/L, reading time 4 h): 15-20% of
- Growth in % of droplets (C. albicans ATCC®24433™ [3]; 0.25 mg/L, reading time 6 h): 30-40% of the
- Growth in droplets (observation in words) (C. albicans ATCC®24433™ [3]; 0.25 mg/L, reading time 24 h): Full growth
- Growth in % of droplets (C. albicans ATCC®24433™ [3]; 0.5 mg/L, reading time 4 h): 15-20% of
- Growth in % of droplets (C. albicans ATCC®24433™ [3]; 0.5 mg/L, reading time 6 h): ~30% of
- Growth in % of droplets (C. albicans ATCC®24433™ [3]; 0.5 mg/L, reading time 24 h): ~20% of
- Growth in droplets (observation in words) (C. albicans ATCC®24433™ [3]; 1 mg/L, reading time 4 h): Limited
- Growth in droplets (observation in words) (C. albicans ATCC®24433™ [3]; 1 mg/L, reading time 6 h): Limited
- Growth in droplets (observation in words) (C. albicans ATCC®24433™ [3]; 1 mg/L, reading time 24 h): Limited
- Growth in droplets (observation in words) (C. albicans ATCC®24433™ [3]; 2 mg/L, reading time 6 h): Limited
- Growth in droplets (observation in words) (C. albicans ATCC®24433™ [3]; 2 mg/L, reading time 24 h): Limited
- Growth in droplets (observation in words) (C. albicans ATCC®24433™ [3]; 8 mg/L, reading time 24 h): 1-2 cells
- Observed MIC (C. albicans ATCC®24433™ [3]; droplets at 30° C., read after 4, 6 (24) h): 2 to 4 mg/L

Structure (SMILES): O=C(N[C@H](CO)[C@H](O)c1ccc([N+](=O)[O-])cc1)C(Cl)Cl [Chloramphenicol]
- Growth in % of droplets ([4]; 0.5 mg/L, reading time 4 h): 30-50% of droplets
- Growth in % of droplets ([4]; 1 mg/L, reading time 4 h): 20-30% of droplets
- Growth in % of droplets ([4]; 1 mg/L, reading time 6 h): 30-50% of droplets
- Growth in droplets (observation in words) ([4]; 2 mg/L, reading time 4 h): No growth
- Growth in droplets (observation in words) ([4]; 2 mg/L, reading time 6 h): Limited growth in few
- Growth in droplets (observation in words) ([4]; 4 mg/L, reading time 4 h): No growth
- Growth in droplets (observation in words) ([4]; 4 mg/L, reading time 6 h): No growth
- Growth in droplets (observation in words) ([4]; 8 mg/L, reading time 4 h): No growth
- MIC [4, 5]: 2 to 4 µg/mL (≈ 6.19 to 12.4 µM)
- Expected MIC (CLSI) (E. coli ATCC®25922): 2 to 8 mg/L

Structure (SMILES): OC(Cn1cncn1)(Cn1cncn1)c1ccc(F)cc1F [Fluconazole]
- Expected MIC (CLSI) (C. albicans ATCC®24433™ [2]): 0.25 to 1 mg/L
- Growth in % of droplets (C. albicans ATCC®24433™ [3]; 1 mg/L, reading time 6 h): Growth in 15-20%
- Growth in % of droplets (C. albicans ATCC®24433™ [3]; 2 mg/L, reading time 4 h): Growth in 15-20%
- Growth in % of droplets (C. albicans ATCC®24433™ [3]; 2 mg/L, reading time 6 h): Growth in 15-20%
- Growth in % of droplets (C. albicans ATCC®24433™ [3]; 4 mg/L, reading time 4 h): ~15% of droplets
- Growth in % of droplets (C. albicans ATCC®24433™ [3]; 4 mg/L, reading time 6 h): Growth in 15-20%
- Growth in droplets (observation in words) (C. albicans ATCC®24433™ [3]; 8 mg/L, reading time 4 h): Limited growth
- Growth in droplets (observation in words) (C. albicans ATCC®24433™ [3]; 8 mg/L, reading time 6 h): Limited growth
- Growth in droplets (observation in words) (C. albicans ATCC®24433™ [3]; 16 mg/L, reading time 4 h): Limited growth
- Growth in droplets (observation in words) (C. albicans ATCC®24433™ [3]; 16 mg/L, reading time 6 h): Limited growth
- Growth in droplets (observation in words) (C. albicans ATCC®24433™ [3]; 32 mg/L, reading time 4 h): Limited growth
- Growth in droplets (observation in words) (C. albicans ATCC®24433™ [3]; 32 mg/L, reading time 6 h): Limited growth
- Growth in droplets (observation in words) (C. albicans ATCC®24433™ [3]; 64 mg/L, reading time 4 h): Limited growth
- Growth in droplets (observation in words) (C. albicans ATCC®24433™ [3]; 64 mg/L, reading time 6 h): Limited growth

Structure (SMILES): CCn1cc(C(=O)O)c(=O)c2ccc(C)nc21 [Nalidixic acid]
- Growth in % of droplets ([4]; 1 mg/L, reading time 6 h): Growth in about 50% of
- Growth in droplets (observation in words) ([4]; 2 mg/L, reading time 6 h): One or few small
- Growth in droplets (observation in words) ([4]; 4 mg/L, reading time 4 h): One or few small
- Growth in droplets (observation in words) ([4]; 4 mg/L, reading time 6 h): No growth
- MIC ([4]; ATCC25922, 6 h): 4 µg/mL (≈ 17.2 µM)
- Expected MIC (CLSI) (E. coli ATCC®25922): 1 to 4 mg/L

Structure (SMILES): CCN1CCN(C(=O)N[C@@H](C(=O)N[C@@H]2C(=O)N3[C@@H]2SC(C)(C)[C@@H]3C(=O)O)c2ccccc2)C(=O)C1=O [Piperacillin]
- Growth in droplets (observation in words) ([4]; 1 mg/L, reading time 4 h): Limited growth in droplets with cells forming filaments
- Growth in droplets (observation in words) ([4]; 2 mg/L, reading time 4 h): No growth
- MIC [4, 5]: 2 µg/mL (≈ 3.86 µM)
- Expected MIC (CLSI) (E. coli ATCC®25922): 1 to 4 mg/L
